We go through 20 compounds from US9381200B2, “Nitrogen containing compounds” (WOCKHARDT LIMITED, priority 2011, dated 2016).

Broadly, the MIC is the lowest concentration that inhibits growth of the organism.

Converted amounts (≈) assume the structure as drawn. Where two headings read alike, the source gives them in different places.

Holding throughout (assay): Antibacterial activity (MIC), agar dilution per CLSI
Assay type in all cases: cell-based

Experiment [1] has as its system E. coli 7 MP. The settings on record: Table 3, E. coli 7 MP expressing ESBL. The method, then: (§1) The biological activity of representative compounds according to the invention against various bacterial strains was investigated. In a typical study, overnight grown bacterial cultures were diluted appropriately and inoculated on the agar media containing doubling dilutions of the test compounds. Observation for growth or no growth was performed after 16-20 hours of incubation at 35±2° C. in ambient air. The overall procedure was performed as per Clinical and Laboratory Standards Institute (CLSI) recommendations (Clinical and Laboratory Standards Institute (CLSI), Performance Standards for Antimicrobial Susceptibility Testing, 20th Informational Supplement, M 100-S20, Volume 30, No. 1, 2010).
(§2) Table 3 details antibacterial activity of representative compounds according to the invention against various E. coli strains (NCTC 13351, M 50 and 7 MP) expressing ESBL (Extended Spectrum Beta Lactamases).

Experiment [2] concerns E. coli NCTC 13351. The settings on record: 16-20 hours, 35±2° C. The method, then: as §1, §2
Experiment [3] concerns E. coli M 50. The settings on record: E. coli M 50 expressing ESBL, agar dilution. The method, then:
as §1
The activities are expressed as MICs (mcg/ml).
A general note: In agar dilution, organisms are placed on agar that contains the substance at set levels.

[4] abbreviates: Escherichia coli, read-out: MIC.
Where [5] appears, read: Escherichia coli, NCTC13351, Table 3, E. coli NCTC 13351 expressing ESBL, read-out: MIC.
The mark [6] stands for this setting: Escherichia coli, M50, Table 3, read-out: MIC.
Where [7] appears, read: Table 3, E. coli NCTC 13351 expressing ESBL.

In the case of `Nc1nc(C(=O)NNC(=O)[C@H]2CC[C@@H]3CN2C(=O)N3OS(=O)(=O)O)cs1` (relative stereo) [Example 42, trans-sulfuric acid mono-[2-(N′-(2-amino-thiazol-4-carbonyl)-hydrazinocarbonyl)-7-oxo-1,6-diaza-bicyclo[3.2.1]oct-6-yl]ester], the values for the MIC in experiment [1] (setting [4]), in experiment [2] (setting [5]) and in experiment [3] (setting [6]) were 64 µg/mL (≈ 157 µM), 32 µg/mL (≈ 78.7 µM) and 32 µg/mL (≈ 78.7 µM), respectively.

With `O=C(CC(=O)N1CCNCC1)NNC(=O)[C@H]1CC[C@@H]2CN1C(=O)N2OS(=O)(=O)O` (relative stereo) [Example 40, trans-sulfuric acid mono-[2-(N′-(3-oxo-3-piperazin-1-yl-propionyl)-hydrazinocarbonyl)-7-oxo-1,6-diaza-bicyclo[3.2.1]oct-6-yl]ester], the MIC came to 4 µg/mL (≈ 9.21 µM) in experiment [1] (setting [4]), 1 µg/mL (≈ 2.3 µM) in experiment [2] (setting [5]) and 1 µg/mL (≈ 2.3 µM) in experiment [3] (setting [6]).

Take `O=C(NNC(=O)N1CCOCC1)[C@H]1CC[C@@H]2CN1C(=O)N2OS(=O)(=O)O.[Na]` (relative stereo) [Example 47, Sodium salt of trans-sulfuric acid mono-[2-(N′-(morpholin-4-oxo-carbonyl)-hydrazinocarbonyl)-7-oxo-1,6-diaza-bicyclo[3.2.1]oct-6-yl]ester]: the MIC in experiment [1] was 128 µg/mL; in experiment [2] (setting [7]), 32 µg/mL; in experiment [3] (Table 3), 64 µg/mL.

Regarding `NCCOCC(=O)NNC(=O)[C@H]1CC[C@@H]2CN1C(=O)N2OS(=O)(=O)O` (relative stereo) [Example 27, trans-sulfuric acid mono-[2-(N′-((2-aminoethoxy)-acetyl)-hydrazinocarbonyl)-7-oxo-1,6-diaza-bicyclo[3.2.1]oct-6-yl]ester], the results for the MIC in experiment [1] (setting [4]), in experiment [2] (setting [5]) and in experiment [3] (setting [6]) were 8 µg/mL (≈ 21 µM), 4 µg/mL (≈ 10.5 µM) and 2 µg/mL (≈ 5.24 µM), respectively.

As for `NC(=O)c1cccc(C(=O)NNC(=O)C2CCC3CN2C(=O)N3OS(=O)(=O)[O-])n1.[Na+]` (stereo not drawn) [Example 46, Sodium salt of trans-sulfuric acid mono-[2-(N′-(6-carboxamido-pyridin-2-carbonyl)-hydrazinocarbonyl)-7-oxo-1,6-diaza-bicyclo[3.2.1]oct-6-yl]ester], the MIC in experiment [1] worked out at 128 µg/mL; in experiment [2] (setting [7]) it was 32 µg/mL; in experiment [3] (Table 3), 64 µg/mL.

With `NC(C(=O)NNC(=O)[C@H]1CC[C@@H]2CN1C(=O)N2OS(=O)(=O)O)c1ccccn1` (mixture of isomers) [Example 41, trans-sulfuric acid mono-[2-(N′—((RS)-1-amino-1-pyridin-2-yl-acetyl)-hydrazinocarbonyl)-7-oxo-1,6-diaza-bicyclo[3.2.1]oct-6-yl]ester], the MIC in experiment [1] turned out to be 16 µg/mL (≈ 38.6 µM); in experiment [2] (setting [7]) it was 4 µg/mL (≈ 9.65 µM); in experiment [3] (Table 3), 4 µg/mL (≈ 9.65 µM).

Regarding `NC(=O)N1C[C@@H](F)C[C@H]1C(=O)NNC(=O)C1CCC2CN1C(=O)N2OS(=O)(=O)[O-].[Na+]` (relative stereo) [Example 49, Sodium salt of trans-sulfuric acid mono-[2-(N′—[(2S,4S)-1-carbamoyl-4-fluoro-pyrrolidin-2-carbonyl]-hydrazinocarbonyl)-7-oxo-1,6-diaza-bicyclo[3.2.1]oct-6-yl]ester], the MIC in experiment [1] turned out to be 16 µg/mL; in experiment [2] (setting [7]) it was 32 µg/mL; in experiment [3] (Table 3) it was 16 µg/mL.

Consider `O=C(NNC(=O)[C@H]1CC[C@@H]2CN1C(=O)N2OS(=O)(=O)O)C1CCNC1` (mixture of isomers) [Example 32, trans-sulfuric acid mono-[2-(N′—[(RS)-pyrrolidin-3-carbonyl]-hydrazinocarbonyl)-7-oxo-1,6-diaza-bicyclo[3.2.1]oct-6-yl]ester], for which the MIC in experiment [1] (setting [4]) was 1 µg/mL (≈ 2.65 µM); in experiment [2] (setting [5]), 0.5 µg/mL (≈ 1.32 µM); in experiment [3] (setting [6]), 0.5 µg/mL (≈ 1.32 µM).

As to `CO[C@H]1CN[C@H](C(=O)NNC(=O)[C@H]2CC[C@@H]3CN2C(=O)N3OS(=O)(=O)O)C1` (mixture of isomers) [Example 12, trans-sulfuric acid mono-[2-(N′-[(2S,4R)-4-methoxy-pyrrolidin-2-carbonyl]-hydrazinocarbonyl)-7-oxo-1,6-diaza-bicyclo[3.2.1]oct-6-yl]ester], the minimal inhibitory concentration (MIC) is 32 µg/mL in experiment [1] (setting [4]), 1 µg/mL in experiment [2] (setting [5]) and 8 µg/mL in experiment [3] (setting [6]).

Take `NCC1(C(=O)NNC(=O)[C@H]2CC[C@@H]3CN2C(=O)N3OS(=O)(=O)O)CC1` (relative stereo) [Example 23, trans-sulfuric acid mono-[2-(N′-(1-aminomethyl-cyclopropan-1-carbonyl)-hydrazinocarbonyl)-7-oxo-1,6-diaza-bicyclo[3.2.1]oct-6-yl]ester]: the minimal inhibitory concentration (MIC) was 8 µg/mL (≈ 21.2 µM) in experiment [1] (setting [4]), 4 µg/mL (≈ 10.6 µM) in experiment [2] (setting [5]) and 4 µg/mL (≈ 10.6 µM) in experiment [3] (setting [6]).

As to `O=C(NNC(=O)N1CCCC1)[C@H]1CC[C@@H]2CN1C(=O)N2OS(=O)(=O)O` (relative stereo) [Example 29, trans-sulfuric acid mono-[2-(N′-[pyrrolidin-1-carbonyl]-hydrazinocarbonyl)-7-oxo-1,6-diaza-bicyclo[3.2.1]oct-6-yl]ester], the MIC in experiment [1] (setting [4]) turned out to be 128 µg/mL (≈ 339 µM); in experiment [2] (setting [5]), 32 µg/mL (≈ 84.8 µM); in experiment [3] (setting [6]) it was 16 µg/mL (≈ 42.4 µM).

On to `NC(=O)N1CCC[C@H]1C(=O)NNC(=O)[C@H]1CC[C@@H]2CN1C(=O)N2OS(=O)(=O)[O-].[Na+]` (relative stereo) [Example 48, Sodium salt of trans-sulfuric acid mono-[2-(N′—[(S)-1-carbamoyl-pyrrolidin-2-carbonyl]-hydrazinocarbonyl)-7-oxo-1,6-diaza-bicyclo [3.2.1]oct-6-yl]ester], for which the MIC is 32 µg/mL in experiment [1], 16 µg/mL in experiment [2] (setting [7]) and 8 µg/mL in experiment [3] (Table 3).

As for `N[C@@H](CO)C(=O)NNC(=O)[C@H]1CC[C@@H]2CN1C(=O)N2OS(=O)(=O)O` (relative stereo) [Example 10], the values for the MIC in experiment [1], in experiment [2] (setting [7]) and in experiment [3] (Table 3) were 32 µg/mL (≈ 87.1 µM), 1 µg/mL (≈ 2.72 µM) and 8 µg/mL (≈ 21.8 µM), respectively.

In the case of `NC(=O)CCC(N)C(=O)NNC(=O)[C@H]1CC[C@@H]2CN1C(=O)N2OS(=O)(=O)O` (relative stereo) [Example 24, trans-sulfuric acid mono-[2-(N′-(2-amino-4-carboxamido-butanoyl)-hydrazinocarbonyl)-7-oxo-1,6-diaza-bicyclo[3.2.1]oct-6-yl]ester], the MIC in experiment [1] was determined as 4 µg/mL (≈ 9.79 µM); in experiment [2] (setting [7]), 1 µg/mL (≈ 2.45 µM); in experiment [3] (Table 3) it was 1 µg/mL (≈ 2.45 µM).

With `O=C(NNC(=O)[C@H]1CC[C@@H]2CN1C(=O)N2OS(=O)(=O)O)[C@H]1CCCNC1` (mixture of isomers) [Example 15, trans-sulfuric acid mono-[2-(N′—((S)-piperidin-3-carbonyl)-hydrazinocarbonyl)-7-oxo-1,6-diaza-bicyclo[3.2.1]oct-6-yl]ester], the figures for the MIC in experiment [1] (setting [4]), in experiment [2] (setting [5]) and in experiment [3] (setting [6]) were 16 µg/mL, 8 µg/mL and 4 µg/mL, respectively.

On to `O=C(NNC(=O)[C@H]1CC[C@@H]2CN1C(=O)N2OS(=O)(=O)O)[C@@H]1C[C@@H](O)CN1` (mixture of isomers) [Example 34, trans-sulfuric acid mono-[2-(N′-[(2S,4R)-4-hydroxy-pyrrolidin-2-carbonyl]-hydrazinocarbonyl)-7-oxo-1,6-diaza-bicyclo[3.2.1]oct-6-yl]ester], for which the MIC in experiment [1] (setting [4]) turned out to be 8 µg/mL; in experiment [2] (setting [5]), 2 µg/mL; in experiment [3] (setting [6]), 2 µg/mL.

As for `N=C(N)N[C@@H]1CN[C@H](C(=O)NNC(=O)[C@H]2CC[C@@H]3CN2C(=O)N3OS(=O)(=O)O)C1` (mixture of isomers) [Example 36, trans-sulfuric acid mono-[2-(N′-[(2S,4S)-4-guanidino-pyrrolidin-2-carbonyl]-hydrazinocarbonyl)-7-oxo-1,6-diaza-bicyclo[3.2.1]oct-6-yl]ester], the MIC in experiment [1] (setting [4]) was 2 µg/mL; in experiment [2] (setting [5]), 1 µg/mL; in experiment [3] (setting [6]), 1 µg/mL.

As for `O=C(CN1CCOCC1)NNC(=O)C1CCC2CN1C(=O)N2OS(=O)(=O)[O-].[Na+]` (stereo not drawn) [Example 45, Sodium salt of trans-sulfuric acid mono-[2-(N′-(morpholin-4-yl-acetyl)-hydrazinocarbonyl)-7-oxo-1,6-diaza-bicyclo[3.2.1]oct-6-yl]ester], the MIC stood at 8 µg/mL in experiment [1], 4 µg/mL in experiment [2] (setting [7]) and 8 µg/mL in experiment [3] (Table 3).

With `O=C(NNC(=O)[C@H]1CC[C@@H]2CN1C(=O)N2OS(=O)(=O)O)C1CCCCN1` (mixture of isomers) [Example 16, trans-sulfuric acid mono-[2-(N′—((RS)-piperidin-2-carbonyl)-hydrazinocarbonyl)-7-oxo-1,6-diaza-bicyclo[3.2.1]oct-6-yl]ester], the MIC amounted to 2 µg/mL (≈ 5.11 µM) in experiment [1] (setting [4]), 1 µg/mL (≈ 2.55 µM) in experiment [2] (setting [5]) and 1 µg/mL (≈ 2.55 µM) in experiment [3] (setting [6]).

Take `NCCCC[C@H](N)C(=O)NNC(=O)[C@H]1CC[C@@H]2CN1C(=O)N2OS(=O)(=O)O` (mixture of isomers) [Example 26, trans-sulfuric acid mono-[2-(N′-((2S)-2,6-diamino-hexanoyl)-hydrazinocarbonyl)-7-oxo-1,6-diaza-bicyclo[3.2.1]oct-6-yl]ester]: the MIC amounted to 2 µg/mL in experiment [1] (setting [4]), 1 µg/mL in experiment [2] (setting [5]) and 1 µg/mL in experiment [3] (setting [6]).
